Paper PMC12851022, “Targeting the Spliceosomal Protein USP39 Through Allosteric Ligands and PROTAC‐Induced Degradation” (Angewandte Chemie (International Ed. in English), 2025)

Key:
[1] = biological target: T1, USP39_T2 (Homo sapiens, UniProt Q53GS9); assay: Competitive FP assay, tracer USP39_B1-FITC; type: binding; settings: for Binding in competitive FP screening normalized to USP39_B1: 5 µM compound concentration; for IC50: tracer USP39_B1-FITC, protein USP39_T2
T1 construct: USP39_T2 (ZNF domain only); made in house
T1 sequence (Q53GS9 103-200 limits assumed): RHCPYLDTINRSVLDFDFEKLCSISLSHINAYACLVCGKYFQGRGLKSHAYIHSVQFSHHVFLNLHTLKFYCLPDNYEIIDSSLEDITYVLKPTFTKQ
Excerpt: The compound label is taken from plot legend entries such as 'WT_USP39_B1'. / Panel e: the picture prints no compound label. WT, M1 and M2 are protein variants (targets), not substances.
To systematically investigate structure–activity relationships, we synthesized a series of derivatives by modifying the phenyl ring, either by substituting the chlorine atom with other halogens or varying the substitution pattern (Figure SI2B).
Figure 3 Design and in vitro characterization of USP39‐targeting PROTACs. a) Synthetic strategy for PROTAC synthesis. […] USP39_B1‐FITC served as the tracer, while USP39_T2 acted as the protein. The results were obtained from two independent experiments, each performed in triplicates and are presented as mean ± SD. e) Predicted results from AI‐Based DMPK analysis. MW: Molecular weight; HBA: H‐Bond acceptors; HBD: H‐Bond donors; Con_LogP: Consensus LogP; RotB: Rotatable Bonds; TPSA: Topological polar surface area; ESOL_LogS: predicted aqueous solubility (Log10 mol L^−1); GI: Gastrointestinal absorption; BBB: Blood–brain barrier. A comprehensive overview of all PROTACs and related data is available in Table SI5 of the Supporting Information.

[2] = biological target: His-tagged USP39 and GST-tagged VHL (Homo sapiens, UniProt P40337+Q53GS9); assay: Alpha assay of ternary complex formation; type: binding
[3] = biological target: T1, USP39_T2; assay: Isothermal titration calorimetry (ITC); type: binding
[4] = biological target: T2, FKBP12^F36V-USP39 (Homo sapiens, UniProt, F37V); assay: dTAG system degradation of FKBP12^F36V-USP39; type: cell-based
T2 construct: expressed in transfected cells
Excerpt: (§1) To investigate whether USP39 can be degraded through the ubiquitin‐proteasome system, we utilized the dTAG system by fusing FKBP12^F36V to the N‐terminus of USP39 (Figure SI1A).^[ [22] ^]

[5] = biological target: T3, FKBP12^F36V-USP39 (Homo sapiens, UniProt P62942+Q96SW2, F37V); assay: dTAG system degradation of FKBP12^F36V-USP39; type: cell-based
T3 construct: expressed in transfected cells
Excerpt: as §1

T2 sequence (P62942 whole entry F37V): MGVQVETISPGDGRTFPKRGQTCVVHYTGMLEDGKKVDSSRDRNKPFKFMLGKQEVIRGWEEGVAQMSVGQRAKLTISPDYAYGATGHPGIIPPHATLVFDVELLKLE
T2 sequence (Q96SW2 whole entry, further chain): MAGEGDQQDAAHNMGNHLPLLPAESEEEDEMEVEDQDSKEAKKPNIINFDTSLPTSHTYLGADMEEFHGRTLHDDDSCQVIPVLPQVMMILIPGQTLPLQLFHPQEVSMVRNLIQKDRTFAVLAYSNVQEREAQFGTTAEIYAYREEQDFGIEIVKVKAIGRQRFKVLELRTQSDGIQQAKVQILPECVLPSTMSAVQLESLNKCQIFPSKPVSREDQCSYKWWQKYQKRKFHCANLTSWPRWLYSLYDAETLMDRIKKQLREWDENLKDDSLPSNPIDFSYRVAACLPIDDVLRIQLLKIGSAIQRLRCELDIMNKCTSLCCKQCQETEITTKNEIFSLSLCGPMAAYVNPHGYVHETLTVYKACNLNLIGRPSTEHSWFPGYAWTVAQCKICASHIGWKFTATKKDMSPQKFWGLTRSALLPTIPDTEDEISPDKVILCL
T3 sequence (P62942 whole entry F37V): as the sequence (P62942 whole entry F37V) above
T3 sequence (Q96SW2 whole entry): as the sequence (Q96SW2 whole entry, further chain) above
His-tagged USP39 and GST-tagged VHL, sequence (Q53GS9 whole entry): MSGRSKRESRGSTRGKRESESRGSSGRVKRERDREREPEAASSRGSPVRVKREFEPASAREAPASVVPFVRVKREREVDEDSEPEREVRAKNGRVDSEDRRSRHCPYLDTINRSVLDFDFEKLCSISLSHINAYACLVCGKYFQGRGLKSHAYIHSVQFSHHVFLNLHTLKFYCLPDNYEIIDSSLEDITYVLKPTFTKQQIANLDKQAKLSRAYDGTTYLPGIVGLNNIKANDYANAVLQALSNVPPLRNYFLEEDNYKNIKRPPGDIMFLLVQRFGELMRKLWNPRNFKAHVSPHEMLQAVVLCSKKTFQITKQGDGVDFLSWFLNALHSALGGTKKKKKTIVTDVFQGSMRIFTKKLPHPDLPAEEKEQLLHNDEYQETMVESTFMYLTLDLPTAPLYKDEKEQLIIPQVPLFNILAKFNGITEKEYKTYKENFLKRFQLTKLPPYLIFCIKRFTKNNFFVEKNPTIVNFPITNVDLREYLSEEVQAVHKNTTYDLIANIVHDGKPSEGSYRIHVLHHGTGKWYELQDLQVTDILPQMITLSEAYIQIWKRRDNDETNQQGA
His-tagged USP39 and GST-tagged VHL, sequence (P40337 whole entry): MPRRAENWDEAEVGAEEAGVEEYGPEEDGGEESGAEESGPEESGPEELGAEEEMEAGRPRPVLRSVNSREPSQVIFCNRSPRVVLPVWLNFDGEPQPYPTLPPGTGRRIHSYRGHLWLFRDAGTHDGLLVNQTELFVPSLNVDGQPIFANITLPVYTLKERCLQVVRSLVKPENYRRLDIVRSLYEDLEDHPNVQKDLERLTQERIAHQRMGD

CCOC(=O)c1csc(Nc2ccccc2Cl)n1 [C4]
Binding in competitive FP screening normalized to USP39_B1 [1]: failed to show measurable binding

CCOC(=O)c1csc(Nc2ccc(Cl)cc2)n1 [USP39_B1]
Inhibitory effect in competitive FP assay ([1]; at 50 µM, USP39_T2, tracer USP39_B1-FITC): weak inhibitory effect | IC50 [1]: > 50000 nM | Kd of ternary complex formation (Alpha assay) [2]: no clear interaction was observed | Kd by ITC [3]: did not yield a clear binding isotherm

CCOC(=O)c1csc(Nc2cccc(F)c2)n1 [USP39_B3]
Binding in competitive FP screening normalized to USP39_B1 [1]: significantly improved binding affinity | IC50 [1]: 1180 nM

CC[C@H](C(=O)N1CCCC[C@H]1C(=O)O[C@H](CCc1ccc(OC)c(OC)c1)c1ccccc1OCC(=O)NCCCCCCOc1cccc2c1C(=O)N(C1CCC(=O)NC1=O)C2=O)c1cc(OC)c(OC)c(OC)c1 (stereo partly drawn) [dTAG13]
Effect on endogenous USP39 levels [4]: without affecting | Time to degradation of FKBP12^F36V-USP39 [5]: ≤ 24 h
